Legend:
Format in all cases: in vivo
Conditions in all cases: evaluated after 13 days
[1] = test system: Ipomoea hederacea (IPOHE); assay: Post-emergence Test, Ipomoea hederacea (IPOHE); parameters: key to percentage damage caused to the plant, IPOHE (five-point scale): 5=81-100%, 4=61-80%, 3=41-60%, 2=21-40%, 1=0-20% damage
Summary of the method: (§1)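 Pots sprayed with compound in acetone/water (50:50) with 0.5% Tween 20, at 1000 g/ha unless noted, glasshouse 24/16 °C, 14 h light, 65% humidity. Damage scored 13 days after spraying on a five-point scale (5=81-100% to 1=0-20%).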

[2] = test system: Ipomoea hederacea (IPOHE); assay: Pre-emergence Test, Ipomoea hederacea (IPOHE)
[3] = test system: Echinochloa crus-galli (ECHCG); assay: Pre-emergence Test, Echinochloa crus-galli (ECHCG)
[4] = test system: Setaria faberi (SETFA); assay: Pre-emergence Test, Setaria faberi (SETFA)
[5] = test system: Zea mays (ZEAMX); assay: Pre-emergence Test, Zea mays (ZEAMX)
[6] = test system: Amaranthus palmeri (AMAPA); assay: Pre-emergence Test, Amaranthus palmeri (AMAPA)
[7] = test system: Zea mays (ZEAMX); assay: Post-emergence Test, Zea mays (ZEAMX); parameters: key to percentage damage caused to the plant, ZEAMX (five-point scale): 5=81-100%, 4=61-80%, 3=41-60%, 2=21-40%, 1=0-20% damage
Summary of the method: as §1

[8] = test system: Echinochloa crus-galli (ECHCG); assay: Post-emergence Test, Echinochloa crus-galli (ECHCG); parameters: key to percentage damage caused to the plant, ECHCG (five-point scale): 5=81-100%, 4=61-80%, 3=41-60%, 2=21-40%, 1=0-20% damage
Summary of the method: as §1

[9] = test system: Amaranthus palmeri (AMAPA); assay: Post-emergence Test, Amaranthus palmeri (AMAPA); parameters: key: 5=81-100%, 4=61-80%, 3=41-60%, 2=21-40%, 1=0-20% damage
Summary of the method: as §1

[10] = test system: Amaranthus retoflexus (AMARE); assay: Pre-emergence Test, Amaranthus retoflexus (AMARE)
[11] = test system: Setaria faberi (SETFA); assay: Post-emergence Test, Setaria faberi (SETFA); parameters: key to percentage damage caused to the plant, SETFA (five-point scale): 5=81-100%, 4=61-80%, 3=41-60%, 2=21-40%, 1=0-20% damage
Summary of the method: as §1

[12] = test system: Amaranthus retoflexus (AMARE); assay: Post-emergence Test, Amaranthus retoflexus (AMARE); parameters: key to percentage damage caused to the plant, AMARE (five-point scale): 5=81-100%, 4=61-80%, 3=41-60%, 2=21-40%, 1=0-20% damage
Summary of the method: as §1

SMILES | percentage damage caused to the plant, IPOHE (five-point scale) ([1]; 250 g/Ha) | percentage damage caused to the plant, IPOHE (five-point scale) ([1]; 1000 g/ha) | Pre-emergence Test IPOHE, percentage damage caused to the plant (five-point scale) ([2]; 1000 g/ha) | Pre-emergence Test ECHCG, percentage damage caused to the plant (five-point scale) ([3]; 1000 g/ha) | Pre-emergence Test SETFA, percentage damage caused to the plant (five-point scale) ([4]; 1000 g/ha) | Pre-emergence Test ZEAMX, percentage damage caused to the plant (five-point scale) ([5]; 1000 g/ha) | Pre-emergence Test AMAPA, percentage damage caused to the plant (five-point scale) ([6]; 1000 g/ha) | percentage damage caused to the plant, ZEAMX (five-point scale) ([7]; 250 g/Ha) | percentage damage caused to the plant, ZEAMX (five-point scale) ([7]; 1000 g/ha) | percentage damage caused to the plant, ECHCG (five-point scale) ([8]; 250 g/Ha) | percentage damage caused to the plant, ECHCG (five-point scale) ([8]; 1000 g/ha) | percentage damage caused to the plant, AMAPA (five-point scale) ([9]; 250 g/Ha) | percentage damage caused to the plant, AMAPA (five-point scale) ([9]; 1000 g/ha) | Pre-emergence Test AMARE, percentage damage caused to the plant (five-point scale) ([10]; 1000 g/ha) | percentage damage caused to the plant, SETFA (five-point scale) ([11]; 250 g/Ha) | percentage damage caused to the plant, SETFA (five-point scale) ([11]; 1000 g/ha) | percentage damage caused to the plant, AMARE (five-point scale) ([12]; 250 g/Ha) | percentage damage caused to the plant, AMARE (five-point scale) ([12]; 1000 g/ha) | Pre-emergence Test IPOHE, percentage damage caused to the plant (five-point scale) ([2]; 250 g/Ha (*)) | Pre-emergence Test ECHCG, percentage damage caused to the plant (five-point scale) ([3]; 250 g/Ha (*)) | further results
CCn1c(Cn2ccc(C(F)(F)F)n2)cc(=O)c(C(=O)O)c1-c1ccc(Cl)c(F)c1 [Compound 30, 2-(4-chloro-3-fluoro-phenyl)-1-ethyl-4-oxo-6-[[3-(trifluoromethyl)pyrazol-1-yl]methyl]pyridine-3-carboxylic acid] | 4 (4=61-80%) | 2 (2=21-40%) | 4 (4=61-80%) | 5 (5=81-100%) | 5 (5=81-100%) | 5 (5=81-100%) | 1 (1=0-20%) | 3 (3=41-60%) | 4 (4=61-80%) | 3 (3=41-60%) | 4 (4=61-80%) | 0 | 2 (2=21-40%) | 0 | 4 (4=61-80%) | 5 (5=81-100%) | 1 (1=0-20%) | 4 (4=61-80%) | – | – | –
CCn1c(Cn2ncc3cnc(Cl)cc32)cc(=O)c(C(=O)O)c1-c1ccc(Cl)c(Cl)c1 [Compound 75, 6-[(6-chloropyrazolo[4,3-c]pyridin-1-yl)methyl]-2-(3,4-dichlorophenyl)-1-ethyl-4-oxo-pyridine-3-carboxylic acid] | 0 | – | – | – | – | – | – | 0 | – | 1 (1=0-20%) | – | 1 (1=0-20%) | – | – | 0 | – | 1 (1=0-20%) | – | 0 | 1 (1=0-20%) | Pre-emergence Test SETFA, percentage damage caused to the plant (five-point scale) ([4]; 250 g/Ha (*)): 1 (1=0-20%); Pre-emergence Test ZEAMX, percentage damage caused to the plant (five-point scale) ([5]; 250 g/Ha (*)): 0; Pre-emergence Test AMAPA, percentage damage caused to the plant (five-point scale) ([6]; 250 g/Ha (*)): 1 (1=0-20%); Pre-emergence Test AMARE, percentage damage caused to the plant (five-point scale) ([10]; 250 g/Ha (*)): 1 (1=0-20%)
CCOc1cc(C(F)(F)F)nn1Cc1cc(=O)c(C(=O)O)c(-c2ccc(Cl)c(Cl)c2)n1CC [Compound 148, 2-(3,4-dichlorophenyl)-6-[[5-ethoxy-3-(trifluoromethyl)pyrazol-1-yl]methyl]-1-ethyl-4-oxo-pyridine-3-carboxylic acid] | 2 (2=21-40%) | 2 (2=21-40%) | 2 (2=21-40%) | 2 (2=21-40%) | 5 (5=81-100%) | 0 | 1 (1=0-20%) | 1 (1=0-20%) | 2 (2=21-40%) | 2 (2=21-40%) | 4 (4=61-80%) | 1 (1=0-20%) | 3 (3=41-60%) | 0 | 3 (3=41-60%) | 4 (4=61-80%) | 1 (1=0-20%) | 3 (3=41-60%) | 0 | 0 | Pre-emergence Test SETFA, percentage damage caused to the plant (five-point scale) ([4]; 250 g/Ha (*)): 2 (2=21-40%); Pre-emergence Test ZEAMX, percentage damage caused to the plant (five-point scale) ([5]; 250 g/Ha (*)): 0; Pre-emergence Test AMAPA, percentage damage caused to the plant (five-point scale) ([6]; 250 g/Ha (*)): 0; Pre-emergence Test AMARE, percentage damage caused to the plant (five-point scale) ([10]; 250 g/Ha (*)): 0

From patent US20250098679A1, “HERBICIDAL PYRIDONE DERIVATIVES” (SYNGENTA CROP PROTECTION AG, priority 2021, published 2025)
